Assay results as given in ChEMBL document CHEMBL5550189, “Discovery of GS-7682, a Novel 4'-Cyano-Modified C-Nucleoside Prodrug with Broad Activity against Pneumo- and Picornaviruses and Efficacy in RSV-Infected African Green Monkeys” (J Med Chem, 2024).
Activity calls are given as the source filed them. The rule behind the calls is not given here.

Columns and labels:
[1] = Cytotoxicity against human MT4 cells incubated for 5 days by Cell Titer Glo assay; format: toxicity, cell-based; settings: time 5 day
[2] = Prodrug conversion in Normal human bronchial epithelial cells assessed as ((2R,3S,4R,5S)-5-(4-aminopyrrolo[2,1-f][1,2,4]triazin-7-yl)-2-cyano-3,4-dihydroxytetrahydrofuran-2-yl)methyl tetrahydrogen triphosphate formation measured per million cells at 10 uM incubated for 2 hrs by LC-MS/MS analysis; format: ADME, cell-based; settings: epithelial cell
[3] = Prodrug conversion in Normal human bronchial epithelial cells assessed as ((2R,3S,4R,5S)-5-(4-aminopyrrolo[2,1-f][1,2,4]triazin-7-yl)-2-cyano-3,4-dihydroxytetrahydrofuran-2-yl)methyl tetrahydrogen triphosphate formation measured per million cells at 1 uM measured after 48 hrs by LC-MS/MS analysis; format: ADME, cell-based; settings: epithelial cell
[4] = Selectivity index, ratio of CC50 for human HEp-2 cells to EC50 for RSV A2 infected in human HEp-2 cells; format: toxicity, cell-based; settings: read-out: Ratio CC50/EC50
[5] = system: Respiratory syncytial virus; test: (§1) Antiviral activity against RSV A2 infected in human airway epithelium transwell culture assessed as decrease in viral RNA level by measuring log10 reduction in median viral load at 0.01 uM pretreated at apical side for 3 hrs followed by compound washout and subsequent viral infection at apical side for 3 hrs followed by removal of virus and recurrent addition of compound on day 0 at apical side measured on day 3 by RT-qPCR analysis; format: functional; settings: time 75 hrs
[6] = system: Respiratory syncytial virus; test: as §1, with “0.05” for “0.01”; format: functional; settings: time 75 hrs
Human metapneumovirus = test: Anti-viral activity against hMPV CAN99-81 (A1 genotype) infected in rhesus monkey LLC-MK2 cells incubated for 90 mins; format: functional, organism-based; settings: LLC-MK2, 1.5 h
Enterovirus A71 = test: Anti-viral activity against EV-71 (H) infected in human RD cells by MTS assay; format: functional, organism-based; settings: Enterovirus A
Influenza A virus = test: Anti-viral activity against Influenza A (H1N1) infected in MDCK cells by MTS assay; format: functional, organism-based; settings: H
[7] = system: Respiratory syncytial virus; test: Antiviral activity against Fluc-fused RSV A2 infected in Normal human bronchial epithelial cells incubated for 3 days by ONE Glo luciferase assay; format: functional, organism-based; settings: A2, Epithelial cell, 72 h
[8] = system: Respiratory syncytial virus; test: Antiviral activity against Fluc-fused RSV A2 infected in D-HBE-As cells incubated for 3 days by ONE Glo luciferase assay; format: functional, organism-based; settings: human respiratory syncytial virus, 72 h
[9] = Prodrug conversion in D-HBE-COPD cells assessed as ((2R,3S,4R,5S)-5-(4-aminopyrrolo[2,1-f][1,2,4]triazin-7-yl)-2-cyano-3,4-dihydroxytetrahydrofuran-2-yl)methyl tetrahydrogen triphosphate formation measured per million cells at 1 uM measured after 48 hrs by LC-MS/MS analysis; format: ADME, cell-based; settings: human
[10] = Prodrug conversion in human H1-HeLa cells assessed as ((2R,3S,4R,5S)-5-(4-aminopyrrolo[2,1-f][1,2,4]triazin-7-yl)-2-cyano-3,4-dihydroxytetrahydrofuran-2-yl)methyl tetrahydrogen triphosphate formation measured per million cells at 0.2 uM measured after 48 hrs by LC-MS/MS analysis; format: ADME, cell-based
[11] = system: Respiratory syncytial virus; test: Antiviral activity against RSV A2 infected in D-HBE-As cells assessed as inhibition of intracellular virus replication; format: functional, organism-based; settings: human respiratory syncytial virus
[12] = Half life in Cynomolgous monkey at 5 mg/kg, iv measured after 30 mins by LC-MS/MS analysis; format: ADME, organism-based, Macaca fascicularis; settings: cynomolgus monkey, in vivo
[13] = Cmax in Cynomolgous monkey at 5 mg/kg, iv measured after 30 mins by LC-MS/MS analysis; format: ADME, organism-based, Macaca fascicularis; settings: cynomolgus monkey, in vivo
[14] = AUC (0 to 24 hrs) in Cynomolgous monkey at 5 mg/kg, iv measured after 30 mins by LC-MS/MS analysis; format: ADME, organism-based, Macaca fascicularis; settings: cynomolgus monkey, in vivo
[15] = Drug concentration in lung of Cynomolgous monkey measured per gram of tissue at 5 mg/kg, iv measured after 24 hrs by LC-MS/MS analysis; format: ADME, organism-based, Macaca fascicularis; settings: cynomolgus monkey, in vivo
[16] = Drug metabolism in Cynomolgous monkey assessed as Cmax of (2R,3S,4R,5S)-5-(4-aminopyrrolo[2,1-f][1,2,4]triazin-7-yl)-3,4-dihydroxy-2-(hydroxymethyl)tetrahydrofuran-2-carbonitrile metabolite at 5 mg/kg, iv measured after 30 mins by LC-MS/MS analysis; format: ADME, organism-based, Macaca fascicularis; settings: cynomolgus monkey, in vivo, 0.5 h
[17] = AUC (0 to 24 hrs) in Cynomolgous monkey at lung-deposited dose of 4 mg/kg, IT measured after 24 hrs by LC-MS/MS analysis; format: ADME, organism-based, Macaca fascicularis; settings: cynomolgus monkey, in vivo
[18] = Drug concentration in lung of Cynomolgous monkey at lung-deposited dose of 4 mg/kg, IT measured after 24 hrs by LC-MS/MS analysis; format: ADME, organism-based, Macaca fascicularis; settings: cynomolgus monkey, in vivo, other
[19] = Drug metabolism in Cynomolgous monkey assessed as half life of (2R,3S,4R,5S)-5-(4-aminopyrrolo[2,1-f][1,2,4]triazin-7-yl)-3,4-dihydroxy-2-(hydroxymethyl)tetrahydrofuran-2-carbonitrile metabolite at lung-deposited dose of 4 mg/kg, IT measured after 24 hrs by LC-MS/MS analysis; format: ADME, organism-based, Macaca fascicularis; settings: cynomolgus monkey, in vivo, other
[20] = Drug metabolism in Cynomolgous monkey assessed as Cmax of (2R,3S,4R,5S)-5-(4-aminopyrrolo[2,1-f][1,2,4]triazin-7-yl)-3,4-dihydroxy-2-(hydroxymethyl)tetrahydrofuran-2-carbonitrile metabolite at lung-deposited dose of 4 mg/kg, IT measured after 24 hrs by LC-MS/MS analysis; format: ADME, organism-based, Macaca fascicularis; settings: cynomolgus monkey, in vivo, other
[21] = Half life in African green monkey at lung-deposited dose of 5.9 mg/kg, IT measured after 24 hrs by LC-MS/MS analysis; format: ADME, organism-based; settings: chlorocebus aethiops, in vivo
[22] = Drug concentration in lung of African green monkey at lung-deposited dose of 5.9 mg/kg, IT measured after 24 hrs by LC-MS/MS analysis; format: ADME, organism-based; settings: chlorocebus aethiops, in vivo, other
[23] = Drug metabolism in African green monkey assessed as half life of (2R,3S,4R,5S)-5-(4-aminopyrrolo[2,1-f][1,2,4]triazin-7-yl)-3,4-dihydroxy-2-(hydroxymethyl)tetrahydrofuran-2-carbonitrile metabolite at lung-deposited dose of 5.9 mg/kg, IT measured after 24 hrs by LC-MS/MS analysis; format: ADME, organism-based; settings: chlorocebus aethiops, in vivo, other
[24] = system: Respiratory syncytial virus; test: Antiviral activity against RSV infected in African green monkey assessed as reduction in viral RNA copies in BAL at lung-deposited dose of 1.6 to 7.6 mg/kg, IT qd for 6 days measured for 3 to 11 days by RT-qPCR analysis; format: functional, organism-based; settings: dose 1.6-7.6 mg/kg, time 11.0 day
[25] = system: Respiratory syncytial virus; test: Antiviral activity against RSV infected in African green monkey assessed as reduction in viral load in BAL at lung-deposited dose of 1.6 to 7.6 mg/kg, IT qd for 6 days measured on day 7 to 9 by RT-qPCR analysis; format: functional, organism-based; settings: dose 1.6-7.6 mg/kg, time 9.0 day
[26] = system: Respiratory syncytial virus; test: Antiviral activity against RSV infected in African green monkey assessed as reduction in viral load in BAL at lung-deposited dose of 1.6 to 7.6 mg/kg, IT qd for 6 days measured on day 11 by RT-qPCR analysis; format: functional, organism-based; settings: dose 1.6-7.6 mg/kg, time 11.0 day
[27] = system: Respiratory syncytial virus; test: Antiviral activity against RSV infected in African green monkey assessed as reduction in viral load in nasal swabs at lung-deposited dose of 1.6 to 7.6 mg/kg, IT qd for 6 days; format: functional, organism-based; settings: dose 1.6-7.6 mg/kg, time 6.0 day

`COC(=O)[C@H](C)N[P@](=O)(OC[C@@]1(C#N)O[C@@H](c2ccc3c(N)ncnn23)[C@H](OC(=O)C(C)C)[C@@H]1OC(=O)C(C)C)Oc1ccccc1` showed a CC50 at 120 h [1] of 3240 nM, a Drug metabolism [2] of 916 pM and a Drug metabolism [3] of 88.8 pM. The selectivity ratio [4] was 500, the Activity [5] was 0.2 log10/ml and the Activity [6] was 0.2 log10/ml. The EC50 (Human metapneumovirus) was 210 nM, the EC50 (Enterovirus A71) was 83 nM and the EC50 (Influenza A virus) was over 2000 nM. It also gave an EC50 [7] of under 3 nM, an EC50 [8] of 6 nM and a Drug metabolism [9] of 85 pM. It also gave an amount per cells [10] of 0.84 pmol/10^6 cells, an IC50 [11] of 97 nM and a half-life [12] of 0.34 h. For the same compound, the Cmax [13] was 1990 nM, the AUC(0-t) at 0.5 h [14] was 0.962 µM·h and the Drug uptake [15] was 4.28 nmol/g. For the same compound, the Cmax [16] was 961 nM, the AUC(0-t) at 24 h [17] was 1.86 µM·h and the Drug uptake [18] was 20.5 nmol. The t1/2 [19] was 38.8 h, the Cmax [20] was 140 nM and the half-life [21] was 7.01 h. The Drug uptake [22] was 24.6 nmol, the t1/2 [23] was 14.7 h and the Activity [24] was “Active”. For the same compound, the Activity [25] was “inactive”, the Activity [26] was “Active” and the Activity [27] was “inactive”.
